Results on 12 compounds are retold here after patent US12410152B2, “Oxazole and thioazole-type cullin ring ubiquitin ligase compounds and uses thereof” (Proxygen GmbH, priority 2019, dated 2025).

pEC50: −log10 of the molar value.

One assay has as its target T1, cyclin K (CCNK) (Homo sapiens, UniProt Q16531+Q9NYV4).
T1 construct: endogenous in cells; host or cells: KBM7 cells (WT and UBE2M/CUL4B/UBE2G1 mutant clones)
As to the kind of experiment: CCNK destabilization/degradation (expression proteomics and Western blot). The format is cell-based. Conditions: for rescue of drug-induced CCNK degradation by pretreatment: 30 min pretreatment before IC020772.1 (2.5 μM, 5h), 1 μM carfilzomib, 1 μM MLN4924, 10 μM TAK-243, 1 μM THZ531. As for the experimental part: (§1) The hypomorphic phenotype of the mutated UBE2M allele in KBM7 cells (KBM7 UBE2M^mut cells) was assessed. In this regard, CRISPR/Cas9-induced mutation of UBE2M inactivated CRL activity including CRL4^CRBN and CRL2^VHL. […] Additionally, CCNK destabilization by all three compounds was validated via time-resolved immunoblots wherein CCNK degradation was evident after two hours (FIG. 19c).
(§2) Subsequently, a total of 53 structurally related analogue compounds in dose-ranging viability assays in KBM7 wildtype- and UBE2M^mut cells was tested to develop a structure-activity relationship for the assayed compounds. This informed on sites amenable for derivatization of analogs (FIG. 20a), and also to the identification of structurally similar small molecules with no measurable activity that are thus suited negative controls. […] CRL activity-dependent degradation of CCNK could be rescued by pharmacologic NAE inhibition and by blocking the ubiquitin activating enzyme UBA1, particularly by pretreating the cells with 1 μM carfilzomib (Selleckchem, S2853), 1 μM MLN4924 (Selleckchem, S7109), 10 μM TAK-243 (MedChemExpress, HY-100487) or 1 μM THZ531 (MedChemExpress HY-103618) (FIG. 19d). Furthermore, treatment with the selective covalent CDK12/13 inhibitor THZ531, which binds to the ATP binding pocket of CDK12/13, rescued CCNK degradation (FIG. 19d) indicating the role of the active site of CDK12/13 for CRL activity-dependent CCNK degradation by the identified compounds (FIG. 19d).
(§3) PBS-washed cell pellets were lysed in 50 mM Tris pH 7.9, 8M Urea and 1% CHAPS and incubated with shaking at 4° C. for at least 30 min. 20 μg of supernatants were run and transferred for detection. Antibodies used: CUL1 (Santa Cruz Biotechnology, sc-1276), CUL2 (Sigma-Aldrich, SAB2501565-100), CUL3 (Cell Signaling Technology, 2759), CUL4A (Cell Signaling Technology, 2699S), CUL4B (Proteintech, 12916-1-AP), CUL5 (Santa Cruz Biotechnology, sc-373822), UBE2M (Santa Cruz Biotechnology, sc-390064), DDB1 (Cell Signaling Technology, 5428S), CCNK (Bethyl, A301-939A), CDK12 (Cell Signaling Technology, 11973S), CDK13 (Bethyl, A301-458A), RBM39 (1:500, Santa Cruz Biotechnology sc-376531), V5 (Cell Signaling Technology, 13202), Ubiquityl-Histone H2A (K119) (Cell Signaling, 8240-20). ACTIN (Sigma-Aldrich, A5441), VINCUL1N (Santa Cruz Biotechnology, sc-25336). Secondary antibodies anti-mouse/rabbit/goat (Jackson ImmunoResearch 115-035-003, 111-035-003 and 705-035-003).
(§4) Comparison of overall proteome-wide changes in KBM7 cells treated with IC020772.1 (2.5 μM), IC021313.2 (7 μM) or T6938051 (3.5 μM) for 5 h and 12h, using quantitative proteomics based on isobaric tagging.

Another assay concerns KBM7 CUL4Bmut cells. Briefly: cells. Conditions: Homo sapiens, KBM-7, read-out: KBM7_CUL4B_mut. The assay is classed as cell-based. As for the experimental part: (§5) KBM7 cells with the specified genetic backgrounds were grown in IMDM supplemented with 10% FBS and 1% penicillin/streptomycin (pen/strep). AsPC1, HCT116, NCI-H446 and 293T cells were grown in DMEM 10% FBS and 1% pen/strep. MV4; 11, Jurkat and Be (2) C cells were grown in RPMI 10% FBS 1% pen/strep. KBM7, AsPC1 and HCT116 cells expressing Cas9 were generated using the plasmid Lenti_Cas9_Blasti (Addgene #52962). The lentiviral plasmid lentiGuide-Puro (Addgene #52963) was used to express sgRNAs against the genes UBE2M (in KBM7-Cas9, AsPC1-Cas9 and HCT116-Cas9 cells), UBE2G1 (in KBM7-Cas9 cells) and […] (in KBM7-Cas9 cells). The lentiviral plasmid lentiGuide-Puro-IRES-mCherry (modified from Addgene #52963) was used to express sgRNAs against CUL4A (in KBM7-Cas9 cells). The lentiviral plasmid pLenti-PGK-Hygro-DEST-UBE2M was generated by Gateway cloning (empty destination vector Addgene #19066), and used to generate UBE2M^resc KBM7 cells. […]
(§6) Finally, a total of structurally similar analogs was tested to unravel structure-activity relationship of the identified molecules. To that end, their anti-cancer activity was assayed in WT cells, as well as KBM7 cells deficient in genes identified in the genome-wide CRISPR screens (UBE2M, CUL4B, UBE2G1). Moreover, the compounds were also tested in AsPC1 pancreatic cancer cells (WT or UBE2Mmut), MV4; 11 and Jurkat leukemia cells, Be (2) C neuroblastoma cells, and NCI-H446 lung cancer cells (Table 3 at the end of this document)
(§7) KBM7^WT, mutant KBM7 clones (UBE2M^mut, UBE2M^resc, UBE2G1^mut CUL4A^mut, CUL4B^mut), and 3-day doxycycline pretreated KBM7^iCas9_sgDDB1 cells were seeded at a cell density of 50,000 cells/mL in 96-well plates with DMSO or drug, in triplicates. Drugs used: IC020772.1/IC020772.1X, IC021313.2/IC021313.2X, T6938051/T6938051X or THZ531. Cells were treated for 3 days, after which cell viability was assessed according to manufacturer's protocol (CellTiter Glo, Promega G7570). Survival curves and EC50 values were calculated by best-fit analysis of the log 10 drug concentration to fold change of drug-treated cells over DMSO-treated cells. All survival assays included technical triplicates per sample, per experiment.

The test system of a further assay is KBM7 UBE2G1mut cells. As to the kind of experiment: cells. Conditions: Homo sapiens, KBM-7, read-out: KBM7_UBE2G1_mut. The assay is classed as cell-based. The method, then:
as §5, §6, §7

The subject of the next assay is KBM7 WT cells. As to the kind of experiment: cells. The assay is classed as cell-based. Conditions: for pEC50: Homo sapiens, KBM-7, read-out: KBM7_WT; for effect on KBM7 cells in dose-ranging viability assays: WT KBM7, 3-day treatment. As for the experimental part: as §5, §6, §7
The test system of the next assay is UBE2M mutant KBM7 cells. Briefly: cells. The assay is classed as cell-based. Conditions: for pEC50: Homo sapiens, KBM-7, read-out: KBM7_UBE2M_mut. As for the experimental part:
as §5
(§8) Following this observation, it was rationalized that novel small molecule degraders can be identified in an unbiased manner, simply by searching for compounds that lose activity in the absence of UBE2M. 2000 small molecules, mostly of unknown function/target, were tested for their antiproliferative effects in human leukemia cells (KBM7). These cells were either transduced with a control sgRNA (KBM7WT), or with an sgRNA targeting UBE2M, leading to a hypomorph (deletion of six amino acids) with a functional impairment (UBE2Mmut).
as §6, §7

Assay [1] has as its system KBM7 WT and UBE2Mmut cells. Briefly: Primary phenotypic screen, differential viability KBM7 WT vs UBE2M mutant. Conditions: 10 μM and 500 nM, 3 days. The format is cell-based, human. As for the experimental part:
as §8
KBM7^WT and UBE2M^mut cells were treated with a compound library (2000 cytotoxic diverse small-molecules, mostly of unknown function/target). Briefly, the screening was divided in three parts 1) primary screening, 2) follow up and 3) validation. During the primary screening, cells were treated with 10 μM and 500 nM of every compound. […] After 3 days of treatment, cell viability was measured (CellTiter Glo, Promega). The screen was perform in 384-well plates (Corning 3712) and the reagent/compound dispensing system used was: Echo 520 Liquid Handler, Multidrop™ Combi Reagent Dispenser. Control compounds were included in several wells, in all the plates. Method for validation of IC021313.2, IC020822.1, IC020772.1, T6938051 as described above in (i).

Assay [2] has as its system T2, cyclin K (CCNK) (Homo sapiens).
T2 construct: endogenous in cells; host or cells: KBM7 cells (WT and UBE2M/CUL4B/UBE2G1 mutant clones)
Briefly: CCNK destabilization/degradation (expression proteomics and Western blot). Conditions: wild-type KBM7 cells. The assay is classed as cell-based. The method, then:
as §1, §2, §3, §4
(In general: A western blot detects proteins with antibodies after separation by electrophoresis.)

Another assay concerns the target T3, DCAF15 (Homo sapiens, UniProt Q66K64).
T3 construct: expressed in transfected cells; host or cells: 293T cells, DCAF15 knocked out, additionally transduced with LgBit
As to the kind of experiment: DCAF15 stabilization, live-cell HiBit/LgBit bioluminescence screen. Conditions: 10 μM, 293T cells expressing HiBit-DCAF15. The format is cell-based. An excerpt:
Subsequently, in this context, the E3 ligase substrate receptor (SR) stabilization approach was employed in order to identify novel chemical matter that can bind and chemically re-program the substrate receptor DCAF15. To be able to screen a collection of around 8000 small-molecules, a cellular system was developed that enabled monitoring of DCAF15 levels in live cells in multi-well format. To that end, DCAF15 was first knocked out in 293T cells via CRISPR/Cas9 technology. Then, DCAF15 was stably expressed as a HiBit® fusion protein in these cells. After further transducing these cells with LgBit, this allowed live-cell tracing of DCAF15 levels in 384 well format by measuring bioluminescence (FIG. 13).
In brief, cells were seeded at a concentration of 250′000 cells/ml in DMEM+10% FCS+25 mM Hepes. The luciferase substrate Endurazine was added at concentrations recommended by the manufacturer. Small-molecules were added at a concentration of 10 μM, and their effect on DCAF15 levels was assayed by continuous bioluminescent imaging (measurements were taken every 120 minutes). In total, 8000 compounds were tested.
The known DCAF15 molecular glue indisulam was used as a positive control. In brief, indisulam is known to act as a DCAF15-dependent molecular glue that binds DCAF15 and induced proximity between DCAF15 and RBM39, leading to the degradation of the latter. […]

T1 sequence (O75909 whole entry partner): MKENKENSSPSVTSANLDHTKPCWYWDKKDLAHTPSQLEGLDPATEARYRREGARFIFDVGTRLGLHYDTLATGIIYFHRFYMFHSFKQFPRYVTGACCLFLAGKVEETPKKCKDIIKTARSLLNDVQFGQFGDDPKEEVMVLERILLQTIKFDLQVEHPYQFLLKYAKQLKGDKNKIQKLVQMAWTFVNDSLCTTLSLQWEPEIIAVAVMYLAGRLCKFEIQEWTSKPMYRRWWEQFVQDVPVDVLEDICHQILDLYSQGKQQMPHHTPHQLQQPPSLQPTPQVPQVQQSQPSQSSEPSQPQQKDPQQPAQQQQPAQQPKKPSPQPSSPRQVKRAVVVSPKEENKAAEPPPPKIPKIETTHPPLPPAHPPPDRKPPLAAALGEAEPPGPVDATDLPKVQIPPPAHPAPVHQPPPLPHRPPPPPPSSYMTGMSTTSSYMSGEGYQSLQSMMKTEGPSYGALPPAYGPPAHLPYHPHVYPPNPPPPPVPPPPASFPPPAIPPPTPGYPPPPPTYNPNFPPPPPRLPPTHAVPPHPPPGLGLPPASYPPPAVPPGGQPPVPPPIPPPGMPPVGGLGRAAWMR
T1 sequence (Q9NYV4 whole entry): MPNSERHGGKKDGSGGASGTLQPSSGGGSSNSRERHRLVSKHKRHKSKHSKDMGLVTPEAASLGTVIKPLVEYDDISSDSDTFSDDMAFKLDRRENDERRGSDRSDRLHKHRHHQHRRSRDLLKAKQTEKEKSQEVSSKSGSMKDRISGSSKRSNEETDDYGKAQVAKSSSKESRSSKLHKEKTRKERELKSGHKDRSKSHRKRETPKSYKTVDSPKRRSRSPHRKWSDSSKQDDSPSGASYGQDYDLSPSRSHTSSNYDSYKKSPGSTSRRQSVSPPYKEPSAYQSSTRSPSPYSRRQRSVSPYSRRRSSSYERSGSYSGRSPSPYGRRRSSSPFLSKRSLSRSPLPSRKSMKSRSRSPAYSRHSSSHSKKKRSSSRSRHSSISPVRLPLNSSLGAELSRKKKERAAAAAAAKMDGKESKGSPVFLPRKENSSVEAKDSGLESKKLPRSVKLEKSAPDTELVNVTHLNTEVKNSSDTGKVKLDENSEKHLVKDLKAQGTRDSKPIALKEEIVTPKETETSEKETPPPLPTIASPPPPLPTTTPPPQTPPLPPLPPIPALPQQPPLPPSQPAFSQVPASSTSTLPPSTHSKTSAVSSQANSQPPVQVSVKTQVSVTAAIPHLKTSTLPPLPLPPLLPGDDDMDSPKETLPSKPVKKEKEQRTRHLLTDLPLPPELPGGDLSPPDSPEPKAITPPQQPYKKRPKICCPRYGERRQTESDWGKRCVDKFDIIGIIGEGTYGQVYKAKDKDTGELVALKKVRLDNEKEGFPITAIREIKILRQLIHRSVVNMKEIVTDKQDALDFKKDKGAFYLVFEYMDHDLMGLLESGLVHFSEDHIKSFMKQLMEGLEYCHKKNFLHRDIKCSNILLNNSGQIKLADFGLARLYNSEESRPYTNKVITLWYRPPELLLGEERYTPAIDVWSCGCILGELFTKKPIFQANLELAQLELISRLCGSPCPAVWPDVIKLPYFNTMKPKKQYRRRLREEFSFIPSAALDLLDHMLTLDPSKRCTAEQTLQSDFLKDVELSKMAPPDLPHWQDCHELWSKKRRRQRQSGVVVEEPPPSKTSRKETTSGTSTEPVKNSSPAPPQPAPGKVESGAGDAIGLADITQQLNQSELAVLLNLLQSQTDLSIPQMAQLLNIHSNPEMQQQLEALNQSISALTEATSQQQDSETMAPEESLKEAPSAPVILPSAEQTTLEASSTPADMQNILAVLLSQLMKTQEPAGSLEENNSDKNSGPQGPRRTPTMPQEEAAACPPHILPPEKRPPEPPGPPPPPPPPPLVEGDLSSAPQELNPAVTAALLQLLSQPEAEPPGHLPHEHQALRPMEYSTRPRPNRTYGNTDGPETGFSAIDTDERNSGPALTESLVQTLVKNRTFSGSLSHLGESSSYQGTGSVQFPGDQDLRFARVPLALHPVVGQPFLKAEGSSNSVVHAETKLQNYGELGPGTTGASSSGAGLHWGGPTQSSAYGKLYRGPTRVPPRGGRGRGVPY
T1 sequence (Q16531 2-1140 limits assumed): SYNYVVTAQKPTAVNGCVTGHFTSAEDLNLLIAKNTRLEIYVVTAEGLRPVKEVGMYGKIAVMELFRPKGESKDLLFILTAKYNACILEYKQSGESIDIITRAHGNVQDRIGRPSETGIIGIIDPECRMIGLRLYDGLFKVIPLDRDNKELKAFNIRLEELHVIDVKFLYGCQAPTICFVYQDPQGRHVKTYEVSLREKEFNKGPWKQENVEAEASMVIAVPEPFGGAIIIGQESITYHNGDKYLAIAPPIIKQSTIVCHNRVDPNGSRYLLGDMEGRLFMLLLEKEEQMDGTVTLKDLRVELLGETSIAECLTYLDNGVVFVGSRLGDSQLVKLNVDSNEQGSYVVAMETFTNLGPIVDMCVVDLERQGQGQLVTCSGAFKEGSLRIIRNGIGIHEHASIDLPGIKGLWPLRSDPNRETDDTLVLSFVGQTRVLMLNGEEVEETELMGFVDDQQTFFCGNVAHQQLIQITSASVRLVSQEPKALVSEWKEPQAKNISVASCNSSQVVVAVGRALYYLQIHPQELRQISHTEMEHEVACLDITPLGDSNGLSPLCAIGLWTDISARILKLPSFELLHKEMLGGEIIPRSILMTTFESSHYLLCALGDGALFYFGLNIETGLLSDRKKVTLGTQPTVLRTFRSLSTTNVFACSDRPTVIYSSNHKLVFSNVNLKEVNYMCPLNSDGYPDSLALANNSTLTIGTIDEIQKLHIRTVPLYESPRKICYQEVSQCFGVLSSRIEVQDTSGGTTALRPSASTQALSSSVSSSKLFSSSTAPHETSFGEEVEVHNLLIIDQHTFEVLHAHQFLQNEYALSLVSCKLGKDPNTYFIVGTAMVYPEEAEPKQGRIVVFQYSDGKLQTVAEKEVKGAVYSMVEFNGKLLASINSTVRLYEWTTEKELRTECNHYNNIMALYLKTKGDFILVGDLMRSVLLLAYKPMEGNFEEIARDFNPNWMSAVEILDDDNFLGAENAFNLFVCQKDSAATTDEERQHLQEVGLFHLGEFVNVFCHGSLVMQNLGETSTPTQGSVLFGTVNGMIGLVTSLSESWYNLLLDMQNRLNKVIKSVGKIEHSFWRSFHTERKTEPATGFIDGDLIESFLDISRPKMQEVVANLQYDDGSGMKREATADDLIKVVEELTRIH
T1 sequence (Q13620 whole entry partner): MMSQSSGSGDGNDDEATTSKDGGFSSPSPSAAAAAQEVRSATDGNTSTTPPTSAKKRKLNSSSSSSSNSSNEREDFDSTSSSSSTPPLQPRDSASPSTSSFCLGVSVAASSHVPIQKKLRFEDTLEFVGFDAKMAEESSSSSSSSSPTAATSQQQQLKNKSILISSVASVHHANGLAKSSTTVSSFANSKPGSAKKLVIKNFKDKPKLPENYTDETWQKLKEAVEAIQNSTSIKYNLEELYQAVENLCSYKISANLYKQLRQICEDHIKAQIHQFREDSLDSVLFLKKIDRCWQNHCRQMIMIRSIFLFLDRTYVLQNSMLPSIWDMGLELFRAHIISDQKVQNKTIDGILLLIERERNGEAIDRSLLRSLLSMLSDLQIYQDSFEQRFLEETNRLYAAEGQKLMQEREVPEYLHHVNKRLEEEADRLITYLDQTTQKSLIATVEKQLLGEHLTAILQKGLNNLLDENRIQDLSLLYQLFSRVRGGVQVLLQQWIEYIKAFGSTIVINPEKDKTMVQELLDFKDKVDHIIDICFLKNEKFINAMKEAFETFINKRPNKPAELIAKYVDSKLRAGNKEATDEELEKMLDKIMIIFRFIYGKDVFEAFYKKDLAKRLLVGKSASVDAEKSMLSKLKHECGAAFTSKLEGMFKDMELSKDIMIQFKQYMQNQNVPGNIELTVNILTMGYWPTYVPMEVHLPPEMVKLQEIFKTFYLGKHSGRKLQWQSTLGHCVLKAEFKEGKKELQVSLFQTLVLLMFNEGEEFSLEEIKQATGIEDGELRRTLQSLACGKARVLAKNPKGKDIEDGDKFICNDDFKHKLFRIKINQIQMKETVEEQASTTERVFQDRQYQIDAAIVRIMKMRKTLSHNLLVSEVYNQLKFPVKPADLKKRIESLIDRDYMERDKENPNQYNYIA
T1 sequence (P62877 whole entry partner): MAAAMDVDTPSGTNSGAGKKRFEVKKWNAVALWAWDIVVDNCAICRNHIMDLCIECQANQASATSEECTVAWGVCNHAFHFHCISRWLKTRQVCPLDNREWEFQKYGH
T2 sequence (O75909 whole entry partner): as the sequence (O75909 whole entry partner) above
T2 sequence (Q9NYV4 whole entry, further chain): as the sequence (Q9NYV4 whole entry) above
T2 sequence (Q16531 2-1140 limits assumed, further chain): as the sequence (Q16531 2-1140 limits assumed) above
T2 sequence (Q13620 whole entry partner): as the sequence (Q13620 whole entry partner) above
T2 sequence (P62877 whole entry partner): as the sequence (P62877 whole entry partner) above
T3 sequence (Q66K64 whole entry): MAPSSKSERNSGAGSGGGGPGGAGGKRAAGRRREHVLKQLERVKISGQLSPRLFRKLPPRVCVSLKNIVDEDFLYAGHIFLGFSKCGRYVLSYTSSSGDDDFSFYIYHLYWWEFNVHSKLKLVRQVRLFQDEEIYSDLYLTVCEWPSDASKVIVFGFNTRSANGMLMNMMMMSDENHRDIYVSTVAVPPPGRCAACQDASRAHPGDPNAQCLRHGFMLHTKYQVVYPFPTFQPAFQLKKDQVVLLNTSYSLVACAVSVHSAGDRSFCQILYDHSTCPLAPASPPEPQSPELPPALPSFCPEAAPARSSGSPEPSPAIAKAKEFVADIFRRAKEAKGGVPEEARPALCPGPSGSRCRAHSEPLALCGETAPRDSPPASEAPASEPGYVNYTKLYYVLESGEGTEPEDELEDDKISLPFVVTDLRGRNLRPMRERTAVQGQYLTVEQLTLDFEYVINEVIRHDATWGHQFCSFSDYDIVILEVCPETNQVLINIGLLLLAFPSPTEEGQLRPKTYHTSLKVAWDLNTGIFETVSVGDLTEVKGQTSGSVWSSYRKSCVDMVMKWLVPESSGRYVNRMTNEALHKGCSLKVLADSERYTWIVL

Consider `NS(=O)(=O)OC[C@@H]1C[C@@H](n2ccc3c(N[C@H]4CCc5ccccc54)ncnc32)C[C@@H]1O` [MLN4924, reference compound], for which the “rescue of drug-induced CCNK degradation by pretreatment” value (shortened to “rescue”) at cyclin K (CCNK) was “rescued”.
As to `O=C(CSc1nc2ccccc2[nH]1)Nc1ccc(Br)cn1` [Compound Z201181756, 2-((1H-benzo[d]imidazol-2-yl)thio)-N-(5-bromopyridin-2-yl) acetamide], the pEC50 with KBM7 CUL4Bmut cells is 4.90; in the assay on KBM7 UBE2G1mut cells, 5.21; with KBM7 WT cells, 5.85; in the assay with UBE2M mutant KBM7 cells, 4.46.
In the case of `O=C(CSc1nc2ccccc2[nH]1)Nc1ccc(Br)cn1` [IC020822.1], the “hit in differential viability screen” value in assay [1] is “stood out in terms of fold-change significance”.
For the compound `O=C(CSc1nc2ccccc2[nH]1)Nc1ccccn1` [IC021313.2X], the “effect on KBM7 cells in dose-ranging viability assays” value in the assay with KBM7 WT cells is given as “did not affect KBM7 cells”. In addition, the CCNK destabilization result in assay [2] is on record as “failed to induce pronounced CCNK destabilization”.
For `O=C(CSc1nc2ccccc2[nH]1)Nc1ccc(Cl)cn1` [Compound Z54609541, 2-((1H-benzo[d]imidazol-2-yl)thio)-N-(5-chloropyridin-2-yl) acetamide], the pEC50 is 4.92 in the assay with KBM7 CUL4Bmut cells, 5.12 in the assay on KBM7 UBE2G1mut cells, 5.62 in the assay with KBM7 WT cells and 4.61 in the assay with UBE2M mutant KBM7 cells.
For `NS(=O)(=O)OC[C@H]1C[C@@H](Nc2ccnc3cc(-c4cccc(SC(F)(F)F)c4)nn23)[C@H](O)[C@@H]1O` [TAK-243, reference compound], at cyclin K (CCNK), the “rescue” value is “rescued”.
As for `Cc1ncsc1-c1ccc([C@H](C)NC(=O)[C@@H]2C[C@@H](O)CN2C(=O)[C@@H](NC(=O)COCCCOCCNC(=O)C[C@@H]2N=C(c3ccc(Cl)cc3)c3c(sc(C)c3C)-n3c(C)nnc32)C(C)(C)C)cc1` [ARV-771, reference compound], the “anti-proliferative effect upon mutation of UBE2M” value in the assay on UBE2M mutant KBM7 cells (KBM7 UBE2M mutant vs WT) was “efficacy is significantly abrogated”.
For the compound `CC(C)C[C@H](NC(=O)[C@H](CCc1ccccc1)NC(=O)CN1CCOCC1)C(=O)N[C@@H](Cc1ccccc1)C(=O)N[C@@H](CC(C)C)C(=O)[C@@]1(C)CO1` [carfilzomib, reference compound], on cyclin K (CCNK), the “rescue” value was “rescued”.
Regarding `NS(=O)(=O)c1ccc(S(=O)(=O)Nc2cccc3c(Cl)c[nH]c23)cc1` [indisulam, reference compound], the “DCAF15 stabilization (relative luciferase signal over time)” value on DCAF15 is given as “pronounced stabilization of DCAF15”.
For the compound `CCCn1c2ccccc2c2nnc(SCC(=O)Nc3ccc(Cl)cn3)nc21` [IC020772.1X], the “effect on KBM7 cells in dose-ranging viability assays” value with KBM7 WT cells is “did not affect KBM7 cells”. Further, the CCNK destabilization entry in assay [2] is listed as “failed to induce pronounced CCNK destabilization”.
In the same order, the values of `Cc1ccc(NC(=O)C2CSCN2C(=O)c2ccc(C)o2)cc1` (stereo not shown) [Compound T6938051X] are “did not affect KBM7 cells” and “failed to induce pronounced CCNK destabilization”.
`CN(C)C/C=C/C(=O)Nc1ccc(C(=O)N2CCC[C@@H](Nc3ncc(Cl)c(-c4c[nH]c5ccccc45)n3)C2)cc1` [THZ531, reference compound]: the “rescue” value on cyclin K (CCNK) is “rescued”. Further, the “effect on CCNK upon inactivation of DDB1, UBE2G1 and UBE2M” value on cyclin K (CCNK) (CRISPR-inactivated KBM7 cells) was “not affected”.
